From patent US20110212853A1, “NOVEL DIAGNOSTIC METHOD” (PROBIODRUG AG, priority 2010, published 2011)

Legend:
[1] = test system: Normal Human Dermal Fibroblasts (NHDF); assay: hMCP-1 N1pE/hMCP-1 ratio by ELISA in OSM+IL1β stimulated NHDF treated with QCI; format: cell-based; settings: 10 μM QCI
Protocol: To capture human MCP-1, commercially available polyclonal antiserum goat anti-hMCP1-AF (R&D Systems, Minneapolis, USA) as capture antibody which specifically binds human MCP-1 was diluted in PBS to 250 ng/ml and immobilized in polystyrene 96-well microtitre plates overnight at 4° C. Thereafter, blocking occurred for 2 hours at room temperature with ELISA Blocker (Thermo Fisher Scientific, Waltham, USA). For preparation of the standard curve recombinant hMCP-1 was incubated with recombinant human Glutaminyl Cyclase (QC) in order to obtain hMCP-1 N1pE. The recombinant hMCP-1 N1pE standard peptide was serially diluted with ELISA Blocker from 1000 pg/ml down to 15.63 pg/ml and added to the wells in duplicate. Two wells filled with ELISA Blocker represent the standard curve value 0 pg/ml. After an incubation period of 2 hours at room temperature, plates were washed at least three times with TBS-T. For detection of hMCP-1 N1pE, the MCP-1 N1pE antibody clone 348-2C9 together with HRP-conjugated anti mouse antibody were both diluted in blocking buffer to final concentrations of 500 ng/ml. For detection of hMCP-1, the antibody mouse anti hMCP-1 (Peprotech, Hamburg, Germany) together with HRP-conjugated anti mouse antibody were also both diluted in blocking buffer to final concentrations of 500 ng/ml. The detection antibody/conjugate solutions were incubated for 2 hours at room temperature. […] Absorption at 450/540 nm was determined by a Tecan Sunrise plate reader.
Quantitative detection of hMCP-1 and hMCP-1 N1pE occurred according to the protocol in […]. […] The cell culture supernatants were analyzed at different time points in order to examine time dependency of hMCP-1 and hMCP-1 N1pE secretion. […]
NHDF have been stimulated with 10 ng/ml OSM, IL1β and simultaneously treated with or without 10 μM QCI for 6 days. […] In order to examine the influence of QCI on hMCP-1 and hMCP-1 N1pE level, the cell culture supernatants were analyzed at different time points according to the ELISA protocol in Example 7.

A549 cells = assay: hMCP-1 N1pE/hMCP-1 ratio by ELISA in TNFα+IL1β stimulated A549 treated with QCI; format: cell-based, human; settings: 24 h, different QCI concentrations
Protocol: To capture human MCP-1, commercially available polyclonal antiserum goat anti-hMCP1-AF (R&D Systems, Minneapolis, USA) as capture antibody which specifically binds human MCP-1 was diluted in PBS to 250 ng/ml and immobilized in polystyrene 96-well microtitre plates overnight at 4° C. Thereafter, blocking occurred for 2 hours at room temperature with ELISA Blocker (Thermo Fisher Scientific, Waltham, USA). For preparation of the standard curve recombinant hMCP-1 was incubated with recombinant human Glutaminyl Cyclase (QC) in order to obtain hMCP-1 N1pE. The recombinant hMCP-1 N1pE standard peptide was serially diluted with ELISA Blocker from 1000 pg/ml down to 15.63 pg/ml and added to the wells in duplicate. Two wells filled with ELISA Blocker represent the standard curve value 0 pg/ml. After an incubation period of 2 hours at room temperature, plates were washed at least three times with TBS-T. For detection of hMCP-1 N1pE, the MCP-1 N1pE antibody clone 348-2C9 together with HRP-conjugated anti mouse antibody were both diluted in blocking buffer to final concentrations of 500 ng/ml. For detection of hMCP-1, the antibody mouse anti hMCP-1 (Peprotech, Hamburg, Germany) together with HRP-conjugated anti mouse antibody were also both diluted in blocking buffer to final concentrations of 500 ng/ml. The detection antibody/conjugate solutions were incubated for 2 hours at room temperature. Following several washes with TBS-T a colour reaction with commercially available HRP substrate TMB (SureBlue Reserve TMB Microwell Peroxidase Substrate (1-component), KPL, Gaithersburg, USA) was performed (30 minutes incubation at room temperature in the dark) and subsequently stopped by the addition of 1,2N H2SO4. Absorption at 450/540 nm was determined by a Tecan Sunrise plate reader.
A549 cells were stimulated for 24 h with 10 ng/ml TNFα and IL1β. Furthermore, QCI was applied in different concentrations to the cells. After 24 h cell culture supernatants were analyzed according to the protocol in Example 7.

SMILES: COc1ccc(NC(=S)NCCCn2ccnc2)cc1OC.Cl [QCI, 1-(3-(1H-imidazol-1-yl)propyl)-3-(3,4-dimethoxyphenyl)thiourea hydrochloride]
- hMCP-1 N1pE level after 1-2 days of OSM+IL1β stimulation ([1]; 1-2 days): below the limit of quantitation
- hMCP-1 N1pE level ([1]; OSM+IL1β): decreased
- ratio of hMCP-1 N1pE/hMCP-1 ([1]; OSM+IL1β): about 0,35
- amount of hMCP-1 N1pE (A549 cells): reduced by QCI in a concentration dependent manner
- amount of total hMCP-1 (A549 cells): nearly unaffected
- ratio of hMCP-1 N1pE/hMCP-1 (A549 cells): decreases with increasing inhibitor concentrations
